pKi: −log10 of the molar value.
Columns and labels:
[1] = target: CDC7 (human) (UniProt O00311); test: Flashplate
[2] = target: CDK19 (human) (UniProt Q9BWU1); test: Flashplate
[3] = target: CDK5 (human) (UniProt Q00535); test: Flashplate
[4] = target: DYRK1A (human) (UniProt Q13627); test: Flashplate
[5] = target: PLK3 (human) (UniProt Q9H4B4); test: Flashplate
[6] = target: SGK1 (human) (UniProt O00141); test: Flashplate
[7] = target: KDR (human) (UniProt P35968); test: HTRF
[8] = target: CHEK2 (human) (UniProt O96017); test: Flashplate
[9] = target: MARK3 (human) (UniProt P27448); test: Flashplate
MARK3 (human), sequence (P27448 whole entry, looked up): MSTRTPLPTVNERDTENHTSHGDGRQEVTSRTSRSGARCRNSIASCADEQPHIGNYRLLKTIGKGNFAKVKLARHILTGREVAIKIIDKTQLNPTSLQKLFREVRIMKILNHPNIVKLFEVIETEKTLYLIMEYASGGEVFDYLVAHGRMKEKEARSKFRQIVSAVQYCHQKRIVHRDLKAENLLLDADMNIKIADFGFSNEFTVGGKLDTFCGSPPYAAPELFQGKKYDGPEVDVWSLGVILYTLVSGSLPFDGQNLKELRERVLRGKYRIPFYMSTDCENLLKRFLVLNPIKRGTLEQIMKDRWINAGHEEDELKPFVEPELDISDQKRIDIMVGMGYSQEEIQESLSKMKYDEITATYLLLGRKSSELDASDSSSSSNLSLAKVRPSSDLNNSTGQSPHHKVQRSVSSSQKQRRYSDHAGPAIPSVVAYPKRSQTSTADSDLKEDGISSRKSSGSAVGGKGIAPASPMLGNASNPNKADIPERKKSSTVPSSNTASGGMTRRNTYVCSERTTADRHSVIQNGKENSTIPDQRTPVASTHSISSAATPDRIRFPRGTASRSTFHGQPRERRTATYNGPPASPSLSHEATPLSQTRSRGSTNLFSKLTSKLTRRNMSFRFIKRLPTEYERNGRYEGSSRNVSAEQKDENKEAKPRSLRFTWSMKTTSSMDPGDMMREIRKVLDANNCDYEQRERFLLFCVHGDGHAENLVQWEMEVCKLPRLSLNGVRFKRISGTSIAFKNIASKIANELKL

[10] = target: CLK4 (human) (UniProt Q9HAZ1); test: Flashplate
CLK4 (human), sequence (Q9HAZ1 whole entry, looked up): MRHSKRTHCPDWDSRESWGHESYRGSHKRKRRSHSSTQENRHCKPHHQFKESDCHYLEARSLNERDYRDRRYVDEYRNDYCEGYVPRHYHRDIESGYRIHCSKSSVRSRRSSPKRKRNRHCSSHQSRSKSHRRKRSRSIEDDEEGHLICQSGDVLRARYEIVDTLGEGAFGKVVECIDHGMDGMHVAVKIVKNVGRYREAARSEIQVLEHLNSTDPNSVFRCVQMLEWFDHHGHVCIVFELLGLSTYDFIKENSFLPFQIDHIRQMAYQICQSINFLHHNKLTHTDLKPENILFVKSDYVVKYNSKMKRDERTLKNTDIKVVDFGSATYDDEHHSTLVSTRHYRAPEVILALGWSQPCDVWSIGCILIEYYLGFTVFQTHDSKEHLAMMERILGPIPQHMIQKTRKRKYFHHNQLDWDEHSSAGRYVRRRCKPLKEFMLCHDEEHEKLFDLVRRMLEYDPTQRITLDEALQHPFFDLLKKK

SGK1 (human), sequence (O00141 whole entry, looked up): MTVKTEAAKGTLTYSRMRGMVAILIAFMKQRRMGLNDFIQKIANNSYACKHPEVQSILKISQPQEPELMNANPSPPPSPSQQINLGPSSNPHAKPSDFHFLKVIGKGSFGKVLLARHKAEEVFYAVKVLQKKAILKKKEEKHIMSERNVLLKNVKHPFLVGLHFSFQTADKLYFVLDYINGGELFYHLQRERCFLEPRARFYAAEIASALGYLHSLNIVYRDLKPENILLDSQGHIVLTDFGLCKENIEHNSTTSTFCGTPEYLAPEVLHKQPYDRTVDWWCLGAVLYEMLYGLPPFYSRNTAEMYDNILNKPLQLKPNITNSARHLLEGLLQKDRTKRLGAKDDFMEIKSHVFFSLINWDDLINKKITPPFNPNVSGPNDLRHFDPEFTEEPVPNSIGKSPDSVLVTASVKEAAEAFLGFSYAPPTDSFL
CDC7 (human), sequence (O00311 whole entry, looked up): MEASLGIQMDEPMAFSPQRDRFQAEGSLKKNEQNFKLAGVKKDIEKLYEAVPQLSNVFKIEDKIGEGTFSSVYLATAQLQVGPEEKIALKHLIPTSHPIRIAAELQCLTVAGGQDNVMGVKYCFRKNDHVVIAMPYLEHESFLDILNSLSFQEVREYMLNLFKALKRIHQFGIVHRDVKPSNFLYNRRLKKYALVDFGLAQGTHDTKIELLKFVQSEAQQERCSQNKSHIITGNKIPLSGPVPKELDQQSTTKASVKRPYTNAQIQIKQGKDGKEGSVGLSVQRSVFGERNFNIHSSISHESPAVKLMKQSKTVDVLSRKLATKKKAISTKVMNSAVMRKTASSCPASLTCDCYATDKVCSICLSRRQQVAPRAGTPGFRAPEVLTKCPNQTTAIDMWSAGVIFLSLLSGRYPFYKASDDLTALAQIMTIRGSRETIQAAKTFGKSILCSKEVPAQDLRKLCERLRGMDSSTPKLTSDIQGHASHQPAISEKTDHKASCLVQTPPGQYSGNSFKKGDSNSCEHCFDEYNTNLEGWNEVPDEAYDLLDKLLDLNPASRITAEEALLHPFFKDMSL
CDK19 (human), sequence (Q9BWU1 whole entry, looked up): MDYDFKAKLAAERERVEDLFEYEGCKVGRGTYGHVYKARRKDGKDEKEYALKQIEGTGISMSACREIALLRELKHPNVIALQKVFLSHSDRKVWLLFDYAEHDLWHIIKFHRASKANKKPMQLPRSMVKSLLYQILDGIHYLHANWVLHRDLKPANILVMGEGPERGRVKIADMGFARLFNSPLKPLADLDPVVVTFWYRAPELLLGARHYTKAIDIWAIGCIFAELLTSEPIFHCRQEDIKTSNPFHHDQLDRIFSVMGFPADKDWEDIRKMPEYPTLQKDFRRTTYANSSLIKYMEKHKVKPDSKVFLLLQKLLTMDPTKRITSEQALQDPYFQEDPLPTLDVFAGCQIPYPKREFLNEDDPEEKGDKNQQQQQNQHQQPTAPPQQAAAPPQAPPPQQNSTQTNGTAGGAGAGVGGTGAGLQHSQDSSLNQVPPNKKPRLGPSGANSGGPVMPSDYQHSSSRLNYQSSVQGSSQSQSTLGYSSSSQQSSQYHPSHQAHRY
CDK5 (human), sequence (Q00535 whole entry, looked up): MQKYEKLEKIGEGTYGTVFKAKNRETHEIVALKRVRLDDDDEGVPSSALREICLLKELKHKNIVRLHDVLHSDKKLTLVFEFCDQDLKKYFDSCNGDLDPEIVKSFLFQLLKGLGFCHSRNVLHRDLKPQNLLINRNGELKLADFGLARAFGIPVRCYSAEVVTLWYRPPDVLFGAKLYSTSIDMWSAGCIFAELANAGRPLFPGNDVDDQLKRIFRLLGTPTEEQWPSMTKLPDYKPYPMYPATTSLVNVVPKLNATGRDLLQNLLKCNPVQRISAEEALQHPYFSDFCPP
KDR (human), sequence (P35968 whole entry, looked up): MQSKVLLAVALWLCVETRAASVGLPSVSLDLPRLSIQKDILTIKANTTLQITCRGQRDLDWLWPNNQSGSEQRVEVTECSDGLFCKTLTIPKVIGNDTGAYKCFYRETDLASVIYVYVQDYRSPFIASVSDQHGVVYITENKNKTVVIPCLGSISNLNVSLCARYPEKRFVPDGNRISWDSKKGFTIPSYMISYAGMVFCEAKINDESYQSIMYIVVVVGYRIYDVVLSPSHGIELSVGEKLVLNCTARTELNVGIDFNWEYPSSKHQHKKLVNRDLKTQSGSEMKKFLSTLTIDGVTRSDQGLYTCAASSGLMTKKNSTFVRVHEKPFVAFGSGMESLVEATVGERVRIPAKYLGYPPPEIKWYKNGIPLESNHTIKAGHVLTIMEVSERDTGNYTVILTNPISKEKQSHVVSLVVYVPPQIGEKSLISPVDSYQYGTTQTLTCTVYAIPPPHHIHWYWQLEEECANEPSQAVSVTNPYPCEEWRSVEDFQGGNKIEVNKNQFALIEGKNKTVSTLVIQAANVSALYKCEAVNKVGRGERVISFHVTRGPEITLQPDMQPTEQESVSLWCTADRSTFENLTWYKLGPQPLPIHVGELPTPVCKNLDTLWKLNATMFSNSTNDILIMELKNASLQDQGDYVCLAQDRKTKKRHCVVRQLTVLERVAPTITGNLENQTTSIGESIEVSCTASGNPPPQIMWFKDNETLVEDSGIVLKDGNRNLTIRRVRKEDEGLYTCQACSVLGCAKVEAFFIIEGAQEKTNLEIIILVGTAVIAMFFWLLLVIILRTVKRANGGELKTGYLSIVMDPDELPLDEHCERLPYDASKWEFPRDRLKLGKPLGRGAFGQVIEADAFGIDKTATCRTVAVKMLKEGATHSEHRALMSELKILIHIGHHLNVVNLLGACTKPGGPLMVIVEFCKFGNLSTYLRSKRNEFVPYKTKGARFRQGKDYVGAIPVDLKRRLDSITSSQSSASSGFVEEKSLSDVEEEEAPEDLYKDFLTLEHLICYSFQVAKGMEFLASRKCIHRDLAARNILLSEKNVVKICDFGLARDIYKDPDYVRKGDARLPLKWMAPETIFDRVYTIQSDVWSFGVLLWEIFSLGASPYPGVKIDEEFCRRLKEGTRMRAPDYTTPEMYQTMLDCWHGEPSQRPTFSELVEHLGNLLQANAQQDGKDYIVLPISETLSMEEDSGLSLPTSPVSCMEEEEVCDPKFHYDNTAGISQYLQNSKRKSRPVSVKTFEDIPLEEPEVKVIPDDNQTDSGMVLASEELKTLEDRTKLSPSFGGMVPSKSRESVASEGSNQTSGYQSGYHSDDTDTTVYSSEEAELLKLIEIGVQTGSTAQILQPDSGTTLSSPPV
PLK3 (human), sequence (Q9H4B4 whole entry, looked up): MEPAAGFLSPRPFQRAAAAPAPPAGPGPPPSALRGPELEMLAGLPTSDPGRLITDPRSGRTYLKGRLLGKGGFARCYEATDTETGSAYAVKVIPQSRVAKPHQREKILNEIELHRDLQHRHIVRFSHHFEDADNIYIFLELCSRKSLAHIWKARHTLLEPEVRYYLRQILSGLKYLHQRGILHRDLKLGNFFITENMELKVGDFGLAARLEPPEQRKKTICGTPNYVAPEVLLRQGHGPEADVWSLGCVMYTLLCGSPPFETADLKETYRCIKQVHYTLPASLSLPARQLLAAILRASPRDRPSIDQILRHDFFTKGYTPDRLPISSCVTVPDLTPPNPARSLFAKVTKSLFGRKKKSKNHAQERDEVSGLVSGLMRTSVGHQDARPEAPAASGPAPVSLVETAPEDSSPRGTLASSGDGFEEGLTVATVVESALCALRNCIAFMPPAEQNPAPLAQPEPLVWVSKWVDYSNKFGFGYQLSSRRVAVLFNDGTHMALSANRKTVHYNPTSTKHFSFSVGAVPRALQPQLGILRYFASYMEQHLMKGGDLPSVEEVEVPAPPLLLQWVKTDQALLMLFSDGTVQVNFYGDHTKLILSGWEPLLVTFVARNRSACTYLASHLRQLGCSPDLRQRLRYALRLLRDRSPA

Compound	pKi [6]	also measured
O=[N+]([O-])c1ccc(-n2nc(-c3ccncc3)cc2O)cc1		pKi [1]: 6.30; pKi [2]: < 4.00
O=C(O)c1ccccc1Nc1ncnc(Nc2ccc3cn[nH]c3c2)n1		pKi [3]: 6.60; pKi [4]: 6.60
COc1cc2ncn(-c3cc(OCc4ccccc4C(F)(F)F)c(C(N)=O)s3)c2cc1OC	< 5.00	pKi [5]: 8.10
CCn1c(=O)/c(=C\Nc2ccccc2)s/c1=C(/C#N)C(=O)O	5.40	pKi [7]: 5.40; pKi [8]: 5.40; pKi [9]: 5.40
CN(C)c1ccc(-c2c(-c3ccc4[nH]nc(N)c4c3)nnn2Cc2ccccc2)cc1		pKi [1]: 9.40
Oc1cc(Cc2nc3ccccc3[nH]2)nn1-c1ccccc1		pKi [2]: < 4.00; pKi [10]: 5.90
O=C(Nc1cccc(Cl)c1)Nc1ncc(CCNc2ncnc3ccsc23)s1	< 5.00	
CNc1ncnc2c1N=C(c1ccc(NC(=O)Nc3cccc(C(F)(F)F)c3)cc1)CCN2	< 5.00	
CCCCCCCCCCCCOc1ccc(NC(=N)N)cc1NC(=N)N	< 5.00	
N[C@H](COc1cncc(-c2cc3cnccc3s2)c1)Cc1c[nH]c2ccccc12	6.00	
COC(=O)c1cc2c(-c3cccc(F)c3)cncc2s1	< 5.00	
CCCC(=O)Nc1cccc(-c2nc(Nc3ccc4[nH]ncc4c3)c3cc(OCCN4CCCC4)ccc3n2)c1	6.30	
S=c1[nH]nc2c3c4c(sc3n3c(=S)[nH]nc3n12)CCC4	5.80	
O=C1Cc2c([nH]c3ccc([N+](=O)[O-])cc23)-c2ccccc2N1	< 5.00	
COc1cc(Nc2ncnc3ccc(-c4ccc(CN5C[C@@H]6C(CO)[C@@H]6C5)cc4)cc23)ccc1Oc1ccccc1 (stereo partly specified)	< 5.00	
COc1ccc(-c2cc3nccn3c(Nc3ccccc3C(N)=O)n2)cc1OC	< 5.00	
O=C(Nc1cccc(C(F)(F)F)n1)Nc1ccnc2c(F)cccc12	< 5.00	
COc1cc(-c2nn([C@H]3CC[C@H](N4CCN(C(C)=O)CC4)CC3)c3ncnc(N)c23)ccc1NC(=O)c1cc2ccccc2n1C	< 5.00	
O=c1c2c([nH]c3cc(-c4ccco4)nn13)CSC2	< 5.00	
CC(C)OC1=NNC(=O)/C1=C/c1c[nH]c2ccccc12	< 5.00	

Compound	pKi [6]	also measured
C[C@@H](Nc1nccc(-c2c(-c3ccc(F)cc3)nc3occn23)n1)c1ccccc1	< 5.00	
COc1cc(CN2CCCCC2)c(Cl)cc1NC(=O)Nc1cnc(C#N)cn1	< 5.00	
Nc1nonc1-n1nnc(C(=O)N/N=C/c2cccs2)c1-c1cccs1	< 5.00	
O=C(NNC(=S)Nc1ccc(Cl)cc1)C(O)(c1ccccc1)c1ccccc1	< 5.00	
Cn1c(NC[C@@H](N)Cc2ccccc2)nc(-c2ccncc2)c(-c2ccc3ccccc3c2)c1=O	< 5.10	
c1ccc(Nc2nc(-c3ccc4[nH]ncc4c3)cs2)cc1	5.60	
CCOC(=O)c1ccc2[nH]c3c(c2c1)CCNC3=O	5.20	
CCN(CCCOc1ccc2c(Nc3cc(CC(=O)Nc4cccc(F)c4)[nH]n3)ncnc2c1)CCOP(=O)(O)O	< 5.20	
Cc1c(C=O)c(O)n2c(nc3ccccc32)c1C#N	< 5.00	
NC(=O)c1cc(-c2ccnc(N)n2)[nH]c1-c1ccc(Cl)cc1F	5.40	
Oc1ccc(-c2nc(-c3ccc(F)cc3)c(-c3ccncc3)[nH]2)cc1	< 5.20	
CCN1CCN(Cc2ccc(NC(=O)Nc3ccc(Oc4cc(NC)ncn4)cc3)cc2C(F)(F)F)CC1	< 5.20	
Cc1cc(-c2ccccc2)n(-c2cc(N/N=C/c3ccco3)ncn2)n1	< 5.00	
O=C(Nc1cnccn1)Nc1ccnc2ccc(C(F)(F)F)cc12	5.40	
CCN1C(=O)N(C)c2cnc(Nc3ccc(C(=O)NC4CCN(C)CC4)cc3OC)nc2N1C1CCCC1	< 5.00	
Cc1nc(N)sc1-c1ccnc(Nc2ccc(N3CCOCC3)cc2)n1	6.60	
Cc1[nH]c(/C=C2\C(=O)Nc3ccccc32)c(C)c1CCC(=O)O	5.30	
COCC(C)(C)CNc1nccc(-c2c(-c3ccc(F)cc3)nc3c(C)nccn23)n1	< 5.00	
Cc1cccc(-c2[nH]c(-c3ccnc(N)n3)cc2C(N)=O)c1C	< 5.00	
NC(=O)c1cccc2c1Nc1nnc(Cl)cc1C(=O)N2	5.10	

Compound	pKi [6]	also measured
Fc1ccc(-c2nc3sccn3c2-c2ccncc2)cc1	< 5.00	
O=C1Nc2ccccc2Nc2ccccc21	< 5.00	
C(=C\c1cncc(O[C@@H]2CCNC2)c1)/c1ccncc1	< 5.00	
CN1CCN(CCCNc2cccc(-c3nc4c(C(N)=O)cccc4[nH]3)n2)CC1	< 5.00	
Cc1n[nH]c2cnc(-c3cncc(OC[C@@H](N)Cc4cccc(C(F)(F)F)c4)c3)cc12	7.20	
CNS(=O)(=O)c1ccccc1Nc1nc(Nc2cc(N3CCN(C(C)=O)CC3)ccc2OC)ncc1Br	< 5.00	
Cc1cc(NC(=O)CCNC(=O)Nc2nc(C)c(-c3ccc(-n4cccn4)cc3)s2)no1	< 5.00	
COc1cccc([C@@H](C)NC(=O)c2ccc(-c3ccncc3)cc2NCCCN)c1	6.40	
Cc1nccn2c(-c3ccnc(NCC(C)(C)C(=O)O)n3)c(-c3ccc(F)cc3F)nc12	< 5.00	
CCCS(=O)(=O)Nc1ccc(-c2ccc3[nH]nc(N)c3c2)cc1	6.50	
CCN1CCN(c2ccc(Nc3nccc(-c4c(-c5cccc(C(=O)Nc6ccccc6F)c5)nc5ccccn45)n3)cc2)CC1	5.20	
COc1ccc(-c2cc3nccn3c(Nc3ncccc3C(N)=O)n2)cc1OC	< 5.00	
Oc1cccc(-c2nc(N3CCOCC3)c3oc4ncccc4c3n2)c1	< 5.10	
N[C@H](COc1cncc(-c2ccc3[nH]c(=O)oc3c2)c1)Cc1c[nH]c2ccccc12	5.30	
NCCOc1cccc(Nc2ccnc(N)n2)c1	< 5.00	
NC(=O)c1cc2c(-c3ccccc3)cncc2s1	5.30	
CC(C)(C)c1cnc(CSc2cnc(NC(=O)C3CCNCC3)s2)o1	< 5.20	
NC(=O)c1cc2c(-c3ccc(F)cc3F)cncc2s1	5.90	
O=c1[nH]c2sc3c(c2c2nc(-c4cccnc4)nn12)CCCC3	< 5.00	

Further lines, with some results ahead:

pKi [6]	Compound	also measured
6.10	COc1cccc(CNC(=O)c2cc3c(-c4ccccc4)n[nH]c3s2)c1	
6.00	O=C(NCc1ccc(Br)cc1)Nc1ccc2[nH]ncc2c1	
< 5.00	NC(=O)c1sc2ccc(Cl)c(Cl)c2c1NC(=O)c1ccc(Cl)cc1	
< 5.00	N#Cc1ccc(-c2n[nH]c3c2Cc2ccc(OCCN4CCOCC4)cc2-3)cn1	
< 5.00	CNC(=O)C(C)n1cc(-c2cnc(N)c3c(-c4ccc(NC(=O)Nc5ccc(C)cc5)cc4)csc23)cn1 (stereo unspecified)	
6.00	Cc1nc(COc2ccccc2Cl)sc1-c1ccnc(N)n1	
< 5.00	O=C(Cc1ccccc1Cl)Nc1ccc2cn[nH]c2c1	
< 5.00	Cc1ccc2c(c1)NC(=O)c1ccccc1N2	
< 5.00	Cc1cccc(NC(=O)Nc2ccc(-c3csc4c(-c5cn[nH]c5)cnc(N)c34)cc2)c1	
< 5.00	Cc1cc(C)cc(NC(=O)Nc2ccc3c(c2)CCc2sc4ncnc(N)c4c2-3)c1	
< 5.00	Cc1cccc(NC(=O)Nc2ccc(-c3csc4c(-c5cnn(C)c5)cnc(N)c34)cc2)c1	
< 5.00	Cc1ccc(CNc2c(Nc3ccncc3)c(=O)c2=O)cc1C	
< 5.00	CCN(CC)CCOc1ccc(-c2nc3c(C(N)=O)cccc3[nH]2)cc1	
5.80	NC(=O)c1cc(-c2ccnc(N)n2)[nH]c1-c1ccc(Cl)cc1Cl	
< 5.00	Cc1ccccc1NC(=O)Nc1ccc(NC(=O)c2csc3ncnc(N)c23)cc1	
5.40	CC(=O)Nc1c(C(N)=O)sc2ccc(Cl)c(Cl)c12	
< 5.00	Cc1ccc(C(=O)Nc2c(C#N)sc3ccc(Cl)c(Cl)c23)cc1	
5.70	Cc1cccc(NC(=O)Nc2ccc(-c3coc4ncnc(N)c34)cc2)c1	
< 5.00	CC(C)Oc1ccc(-c2noc(-c3ccc(N[C@H]4CC[C@@H](C(=O)O)C4)cc3)n2)cc1Cl	
< 5.00	COc1ccc(CNc2c(Nc3ccc4[nH]ncc4c3)c(=O)c2=O)cc1	
< 5.00	CCN(CC)CC#Cc1ccc2c(c1)-c1[nH]nc(-c3ccc(C#N)nc3)c1C2	
6.00	O=C(NCc1ccc(Cl)cc1)c1cc2c(-c3ccccc3)n[nH]c2s1	
< 5.00	COc1ccc(-c2ccc(NC(=O)Nc3cc(F)cc(F)c3)cc2)c2c(N)noc12	
< 5.00	Cc1c(O)cccc1NC(=O)c1cnn2c(-c3ccccc3)ccnc12	
< 5.00	Cc1c(C)n(Cc2ccccc2)c2ccc(C(=O)Nc3nc[nH]n3)cc12	
< 5.00	Cc1cccc(C2(c3cccc(C)c3)CC2C(=O)Nc2ccncc2)c1 (stereo unspecified)	
5.20	Cc1cccc(NC(=O)Nc2ccc(-c3cnc4c(-c5cnn(C)c5)cnn4c3N)cc2)c1	
< 5.00	CCc1nc(-c2cccc(C)c2)c(-c2ccnc(NC(=O)c3ccccc3)c2)s1	
5.60	Cc1ccccc1NC(=O)Nc1ccc(-c2coc3ncnc(N)c23)cc1	
< 5.00	Cc1cc(C)cc(NC(=O)Nc2ccc(-c3cccc4sncc34)cc2)c1	

Reference: the kinase profiling compilation of Christmann-Franck et al. (2016)
